In ChEMBL document CHEMBL1157539, “Thousands of chemical starting points for antimalarial lead identification” (Nature, 2010):

test system: Plasmodium falciparum; assay: GSK_TCMDC: Inhibition of Plasmodium falciparum 3D7 in whole erythrocytes, using parasite LDH activity as an index of growth.; type: functional, organism-based; conditions: not given

Row | SMILES | XC50 [nM]
1 | O=C(Nc1cc(C(F)(F)F)cc(C(F)(F)F)c1)NC1CCC(CN2CCC(c3c[nH]c4ccccc34)CC2)CC1 (stereo not given) | 461

same assay, conditions: Plasmodium falciparum, 3D7

Row | SMILES | XC50 [nM]
2 | O=C(NCC1CCN(C/C=C/c2ccccc2)CC1)Nc1ccc(Oc2ccccc2)cc1 | 1040
3 | CC(C)c1ccc(NC(=O)N[C@H]2CCN(CCCCCNC(=O)/C=C/c3ccc(Cl)c(Cl)c3)C2)cc1 | 710
4 | Clc1ccc2c(NCc3ccc4c(c3)OCO4)ccnc2c1 | 266
5 | Cc1ccc(C(=O)Nc2cccc(-c3ccc(N4CCN(C)CC4)nn3)c2)cc1[N+](=O)[O-] | 334
6 | O=C(CCCCCNC(=O)c1ccc(O)c(-c2ccc(Cl)c(Cl)c2)c1)NCCN1CCCCC1 | 886
7 | Cc1ccc(O)c(CN2CCCC(COC(c3ccc(F)cc3)c3ccc(F)cc3)C2)c1 (stereo not given) | 715
8 | O=S(=O)(Nc1cccc(CCN2CCC(N3CCCCC3)CC2)c1)c1ccc(Cl)cc1 | 916
9 | Cc1ccccc1C1CCN(C2CCC(NC(=O)C3=Cc4cc(Cl)ccc4OC3)CC2)CC1 (stereo not given) | 889
10 | CCOC(=O)CNC(=O)N1CCN(C(=O)NCC(=O)OCC)CC1 | 848
11 | NS(=O)(=O)NCCCN1CCN(c2ccccc2)CC1 | 977
12 | Cc1ccc(NC(=O)c2ccc3ncccc3c2)cc1OC1CCN(C(C)C)C1 (stereo not given) | 990
13 | COc1cccc(C(=O)NCc2cccs2)c1OCc1ccccc1 | 921
14 | COc1c(CNCCCCCCNCc2c(OC)c(OC)c3ccccc3c2OC)c(OC)c2ccccc2c1OC | 956
15 | COc1cccc2c(NCc3ccccc3)nc(NCCCN3CCCCC3C)nc12 (stereo not given) | 911
16 | Cc1[nH]c(C)c(-c2ccc(Oc3ccc(C(F)(F)F)cc3)cc2)c(=O)c1Br | 206
17 | O=C(N[C@@H](Cc1ccccc1)[C@H](O)CNC1CCOCC1)c1cc(C2CCCC2)cc(N2CCCCS2(=O)=O)c1 | 202
18 | O=C(Nc1ccnc2ccccc12)NC1CCN(Cc2ccccc2)CC1 | 988
19 | CC(C)(CNC(=O)[C@@H]1CCCN(Cc2ccc(Cl)cc2)C1)c1nc(-c2ccc(Cl)c(O)c2)c(-c2ccncc2)[nH]1 | 941
20 | O=C(N[C@@H](CC1CCCCC1)C(=O)NCc1cccc(C(F)(F)F)c1)c1ccc(O)c(-c2ccc(Cl)c(Cl)c2)c1 | 224
21 | COc1ccc2nccc([C@@H](O)CN3CCC(NC(=O)C(=Cc4ccc(Cl)cc4Cl)c4ccc(-c5ccccc5)cc4)CC3)c2c1 | 993
22 | CCN(CCCN1CCCCC1)c1cc(C)nc(Nc2cccc3c2CCCC3)n1 | 1030
23 | Cc1ccccc1C1CCN(C2CCC(NC(=O)c3ccc(-c4ccccn4)s3)CC2)CC1 (stereo not given) | 1180
24 | O=C(/C=C/c1ccc(Cl)c(Cl)c1)NCCCCCCN1CCN(C(=O)Nc2cc(Cl)nc(Cl)c2)CC1 | 784
25 | COc1cc(CCOc2c(C)nc(N)nc2N)cc(OC)c1OC | 23.8

Row | SMILES | XC50 [nM]
26 | COc1ccc2nccc([C@@H](O)CN3CCC(NCc4ccc5c(n4)NCCC5)CC3)c2c1 | 738
27 | O=C(Nc1ccc(-c2ccc(CN3CCNCC3)cc2)cc1)c1cccc(Cl)c1 | 894
28 | CN(C)CC(O)COc1ccc(Nc2ncc([N+](=O)[O-])c(Nc3ccccc3O)n2)cc1 (stereo not given) | 762
29 | CCOC(=O)C1=C(C)NC(Cn2ccnc2)=C(C(=O)OCC)C1c1ccc(C(C)(C)C)cc1 (stereo not given) | 807
30 | CCOc1ccccc1NC(=O)Nc1ccc2c(c1)CCN(C1CCC1)CC2 | 1110
31 | CCC(NC(=O)c1ccccc1NC(=O)c1ccc(C)cc1)C(=O)OC (stereo not given) | 762
32 | C[C@@H]([C@@H](CCCc1ccc(Cl)cc1)C(=O)N[C@H](C(=O)Nc1cccnc1)C(C)(C)C)N(O)C=O | 719
33 | Fc1ccc(CNc2ncc(-c3ccsc3)c(-c3nccs3)n2)cc1 | 72.1
34 | O=C(Nc1cc(C(F)(F)F)cc(C(F)(F)F)c1)NC1CCC(CN2CCC(c3c[nH]c4ccccc34)CC2)CC1 (stereo not given) | 810
35 | O=C(C=Cc1ccc(F)c(Br)c1)N1CCC(CN2CCC(c3c[nH]c4ccccc34)CC2)CC1 | 745
36 | Cc1cc(=O)c(-c2ccc(Oc3ccc(C(F)(F)F)cc3)cc2)c(C)n1O | 604
37 | N#Cc1ccc2c(c1)CCN(CCC1CCC(NC(=O)/C=C/c3nc4ccccc4s3)CC1)CC2 (stereo not given) | 829
38 | CS(=O)(=O)c1ccc(CCNCc2ccc(-c3ccc(CNC4Cc5ccccc5C4)cc3)nc2)cc1 | 757
39 | O=C(CCN1CCCCC1)Nc1ccc(Nc2nccc(NCC(O)c3ccccc3)n2)cc1 (stereo not given) | 721
40 | CC(C)CCNC(=N)Nc1ccc(OCCCCCOc2ccc(NC(=N)NCCC(C)C)cc2)cc1 | 1080
41 | CO/C(=C/C=C/c1cc2cc(Cl)c(Cl)cc2[nH]1)C(=O)NC1CC(C)(C)N(C)C(C)(C)C1 | 783
42 | Oc1ccc(CCNc2nc(NCCCOc3cc(CN4CCCCC4)ccc3F)nc(N3CCNCC3)n2)cc1 | 1760
43 | c1ccc(CNCc2ccc(-c3ccc(-c4nc5ccccc5[nH]4)cc3)cc2)cc1 | 338
44 | COc1ccc(CNCc2ccc(-c3ccc(-c4nc5cccc(C)c5[nH]4)cc3)cc2)cc1 | 341
45 | CC(=O)Nc1cccc(C(=O)Nc2cccc(-c3ccc(-c4nc5cc(C(F)(F)F)ccc5[nH]4)s3)c2)c1 | 652
46 | CCNc1cc(C(=O)N[C@@H](Cc2ccccc2)[C@H](O)CNC(C)(C)c2cccc(OC)c2)cc(N2CCCC2=O)c1 | 143
47 | CCCCCCc1cnc2nc(N)nc(N)c2c1C | 194
48 | CC(=O)Oc1c(C2CCN(CCCCNC(=O)c3ccc(NC(=O)c4ccc(Cl)cc4)cc3)CC2)ccc2ccccc12 | 881
49 | CC(C)[C@H](NC(=O)c1ccc(O)c(-c2ccc(Cl)c(Cl)c2)c1)C(=O)NCCN(C)C | 1050

Row | SMILES | XC50 [nM]
50 | COc1ccc(C(=O)CCC(=O)N(Cc2ccc(-c3ccc(CNCc4cccnc4)cn3)cc2)C2CCN(Cc3ccccc3)CC2)cc1F | 978
51 | CN(C)Cc1cccc(-c2cnc(N)c(-c3nc4cc(S(C)(=O)=O)ccc4[nH]3)c2)c1 | 887
52 | Oc1cccc(-c2nc3cc(C4=NC5CCCCC5N4)ccc3[nH]2)c1 (stereo not given) | 592
53 | COc1ccc(-c2nc(NC(=O)CS(=O)(=O)c3ccc(OC)cc3)sc2C)cc1 | 302
54 | Cc1cccc2nc(-c3ccc(-c4cccc(CNC(C)C)c4)s3)[nH]c12 | 231
55 | O[C@H]1[C@H](OCc2ccc(-c3ccccc3)cc2)CC[C@@H]1N1CCCCC1 | 1060
56 | COc1cccc(CNc2noc(-c3c(-c4ccccc4)noc3C)n2)c1OC | 875
57 | CC(C)(C)OC(=O)N(Cc1cc(-n2nnnc2C(F)(F)F)ccc1O)[C@H]1CCCN(C(=O)OC(C)(C)C)[C@H]1c1ccccc1 | 719
58 | Fc1ccc2c(NN=Cc3ccccc3)ccnc2c1 | 739
59 | Cc1ccc2c(=NN=CC=Cc3ccccc3)cc(C)[nH]c2c1 | 1120
60 | COc1ccc([N+](=O)[O-])cc1N(Cc1ccccc1-c1ccccc1)S(=O)(=O)c1ccc(C(F)(F)F)cc1[N+](=O)[O-] | 1050
61 | CCn1c(-c2nonc2N)nc2c(-c3cccc(NC(=O)Nc4ccc(C(F)(F)F)cc4)c3)ncc(OCCCN)c21 | 1050
62 | CCN(CC)c1nc(Nc2cc(C)ccc2C)nc(Nc2ccccc2O)n1 | 641
63 | O=C(NC1CCN(CC2(c3ccc(Cl)cc3)CCCCC2)CC1)c1cc[nH]n1 | 84
64 | O=C(C=Cc1ccc(-c2ccccc2)cc1)N1CCC(CCN2CCC(c3c[nH]c4ccccc34)CC2)CC1 | 1120
65 | O=C(/C=C/c1ccc(F)cc1)NC1CCC(CCN2CCCN(c3ccc(C(F)(F)F)cn3)CC2)CC1 (stereo not given) | 1080
66 | CN(CCS(C)(=O)=O)Cc1ccc(-c2ccc3ncnc(Nc4ccc(OCc5cccc(F)c5)c(Cl)c4)c3c2)o1 | 681
67 | CC(C)C[C@H](Nc1ccnc(NCC2CCCCC2)n1)C(=O)NCCOc1ccccc1 | 1020
68 | CCCC(=O)c1cnc2c(I)cccc2c1Nc1ccccc1C | 1160
69 | Cc1ccc(-c2ccc3c(c2)C=C(C(=O)NC2CCN(CCNC(=O)c4cccc(C(F)(F)F)c4)CC2)CCC3)cc1 | 512
70 | COc1ccc2nccc(N(C)CC3(O)CCN(CC(O)c4ccc5c(c4)NC(=O)CS5)CC3)c2n1 (stereo not given) | 590
71 | COc1ccc2nccc([C@@H](O)CN3CCC(NC(=O)c4nc(Cl)c(Cl)c(N)c4Cl)CC3)c2c1 | 1300
72 | COc1ccc(Cn2c(Nc3cccc(C(F)(F)F)c3)nc3cc(C(=O)NC(C)C)cnc32)cc1Cl | 973
73 | CS(=O)(=O)CCNCc1nc(-c2ccc3ncnc(Nc4ccc(OCc5cccc(F)c5)c(Cl)c4)c3c2)cs1 | 771

Row | SMILES | XC50 [nM]
74 | CS(=O)(=O)c1ccc(CNCc2cccc(-c3ccc(-c4nc5cc(C(F)(F)F)ccc5[nH]4)cc3)c2)cc1 | 513
75 | CCC(C)NS(=O)(=O)c1ccc2nc(Nc3cccc(SC)c3)n(C(C)C(C)C)c2c1 (stereo not given) | 503
76 | c1ccc(COc2ccnc(NCCCOc3cccc(CN4CCCCC4)c3)c2)cc1 | 994
77 | CCC(=Cc1cccc([N+](=O)[O-])c1)C(=O)NCC1CCN(c2nc3cc(OC)c(OC)cc3c(=N)[nH]2)CC1 | 236
78 | Cc1[nH]c2cc(Cl)ccc2c1C1=CCN(CCN2CCOc3c(Br)cccc3C2=O)CC1 | 873
79 | CO[C@@H]1C[C@@H](C(=O)Nc2ccccc2)N(c2ccc(C#N)c3ccccc23)C1 | 907
80 | COc1ccc2nccc([C@@H](O)CN3CCC(NC(=O)/C=C/c4cccc(NC(C)=O)c4)CC3)c2c1 | 963
81 | CCCCN1CC[C@@H](CCC(O)c2ccnc3ccc(OCCC(C)C)cc23)[C@@H](CC)C1 (stereo not given in full) | 989
82 | O=C(/C=C/c1ccc(Cl)c(Cl)c1)N1CCC(CN2CCC(c3cn(CC(=O)N4CCCCC4)c4ccccc34)CC2)CC1 | 750
83 | OC(CNCc1ccccc1OCc1ccccc1)c1cccc(I)c1 (stereo not given) | 418
84 | CCS(=O)(=O)c1ccc(-c2cnc3[nH]cc(-c4ccc(N)cc4)c3c2)cc1 | 851
85 | CC(C)(C)N1CCC(N(Cc2ccc(-c3ccc(C(F)(F)F)cc3)cc2)C(=O)Cn2c(CCc3cccc(F)c3F)cc(=O)c3cccnc32)CC1 | 705
86 | c1cc(-c2cc3ccc(C4=NCCN4)cc3[nH]2)ccc1C1=NCCN1 | 224
87 | CCCCCCCCCCNCC(O)c1ccc(O)c(C(=O)OC)c1 (stereo not given) | 717
88 | COc1ccc2nccc(N3CCCN(CCNS(=O)(=O)c4ccc5c(c4)NC(=O)CS5)CC3)c2n1 | 824
89 | CN1CCCN(Cc2cccc(-c3ccc(NC(=O)c4cccc(C#N)c4)cc3)c2)CC1 | 723
90 | CC1CN(Cc2ccccc2)CCN1c1ccc(NC(=O)c2ccc(F)cc2)cc1 (stereo not given) | 1010
91 | COc1ccc2nccc([C@@H](O)CN3CCC(NCc4ccc(OC)c(NC(C)=O)c4)CC3)c2c1 | 835
92 | C=CCNS(=O)(=O)c1ccc(NC(=O)C(C)Oc2ccc([N+](=O)[O-])cc2)cc1 (stereo not given) | 1220
93 | COc1ccc(C=Cc2cc(=N)c3ccccc3[nH]2)cc1Br | 713
94 | CC(C)(C)c1cc(C(=O)N2CCC(c3ccccn3)CC2)n(Cc2ccccc2)n1 | 955
95 | Cc1nn(-c2cccc(Cl)c2)c2c1C(C(=O)c1ccc3c(c1)OCO3)CC(=O)N2 (stereo not given) | 371
